In ChEMBL document CHEMBL4507265 (2021):

Columns and labels:
[1] = molecular target: Histamine H3 receptor (Homo sapiens) (UniProt Q9Y5N1); conditions: Compound concentration 10.0 uM
[2] = molecular target: L-type calcium channel, dihydropyridine site (Cav1.2 alpha-1C) (Homo sapiens, UniProt Q13936); test: Inhibition of Calcium Channel L-Type, Dihydropyridine at 10 µM in the Eurofins-Panlabs radioligand binding assay (Eurofins_assay_214600); parameters: ligand concentration 0.1 nM, non-specific ligand with concentration 1 µM Nitrendipine, incubation time 90 min, incubation temperature 25 °C; conditions: Wistar, rat, rat cerebral cortex preparation, probe [3H] Nitrendipine, 0.1 nM; compound concentration 10 uM; target entry is the homologue from another species
Mus musculus [3] = species: Mus musculus; test: Inhibition of Interleukin IL-1 at 10 µM in the Eurofins-Panlabs radioligand binding assay (Eurofins_assay_243520); parameters: ligand concentration 0.1 nM; conditions: Compound concentration 10.0 uM
[4] = molecular target: B1 bradykinin receptor (Homo sapiens) (UniProt P46663); test: Inhibition of Bradykinin B1 at 10 µM in the Eurofins-Panlabs radioligand binding assay (Eurofins_assay_212510); conditions: Compound concentration 10.0 uM
[5] = molecular target: Glutamate NMDA receptor (Rattus norvegicus) (UniProt P35439+Q00959+Q00960+Q00961+Q62645+Q8VHN2+Q9R1M7); conditions: Compound concentration 10.0 uM
[6] = molecular target: Sigma non-opioid intracellular receptor 1 (Homo sapiens) (UniProt Q99720); test: Sigma 1 Eurofins-Panlabs radioligand binding assay; parameters: ligand concentration 8 nM; conditions: Compound concentration 10.0 uM
[7] = molecular target: voltage-gated sodium channel, site 2 (Rattus norvegicus, UniProt F1LQQ7+O08562+O88420+O88457+P04774+P04775+P08104+P15389+P15390+Q62968); test: Inhibition of Sodium Channel, Site 2 at 10 µM in the Eurofins-Panlabs radioligand binding assay (Eurofins_assay_279510); format: protein assay; parameters: ligand concentration 5 nM, non-specific ligand with concentration 100 µM Veratridine, incubation time 60 min, incubation temperature 37 °C; conditions: male, Wistar, rat whole brain (except cerebellum) membranes, probe [3H] Batrachotoxinin, 5 nM, compound concentration 10 uM
[8] = molecular target: Histamine H1 receptor (Homo sapiens) (UniProt P35367); conditions: Compound concentration 10.0 uM
[9] = molecular target: Histamine H3 receptor (Homo sapiens) (UniProt Q9Y5N1); conditions: Compound concentration 10.0 uM; remark: listed apart in the source
[10] = molecular target: T1, D(4) dopamine receptor (Homo sapiens) (UniProt P21917); test: Inhibition of Dopamine D4.2 at 10 µM in the Eurofins-Panlabs radioligand binding assay (Eurofins_assay_219900); parameters: ligand concentration 0.5 nM; conditions: Compound concentration 10.0 uM
T1 sequence (whole entry): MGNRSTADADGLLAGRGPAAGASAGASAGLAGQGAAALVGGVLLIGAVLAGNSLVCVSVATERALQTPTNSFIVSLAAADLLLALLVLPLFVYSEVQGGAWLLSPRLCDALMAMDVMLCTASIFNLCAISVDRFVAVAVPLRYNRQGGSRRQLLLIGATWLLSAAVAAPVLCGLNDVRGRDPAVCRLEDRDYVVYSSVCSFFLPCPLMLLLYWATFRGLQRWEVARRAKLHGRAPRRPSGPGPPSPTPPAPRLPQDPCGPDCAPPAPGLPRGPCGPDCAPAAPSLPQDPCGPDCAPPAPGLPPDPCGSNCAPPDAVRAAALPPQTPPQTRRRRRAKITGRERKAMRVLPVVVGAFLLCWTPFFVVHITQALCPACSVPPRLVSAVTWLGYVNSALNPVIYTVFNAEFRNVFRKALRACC

Mus musculus [11] = species: Mus musculus; test: Inhibition of Phorbol Ester at 10 µM in the Eurofins-Panlabs radioligand binding assay (Eurofins_assay_264500); parameters: ligand concentration 3 nM; conditions: Compound concentration 10.0 uM
[12] = molecular target: D(1A) dopamine receptor (Homo sapiens) (UniProt P21728); conditions: Compound concentration 10.0 uM
[13] = molecular target: Delta-type opioid receptor (Homo sapiens) (UniProt P41143); conditions: Compound concentration 10.0 uM
[14] = molecular target: Cannabinoid receptor 1 (Homo sapiens) (UniProt P21554); conditions: Compound concentration 10.0 uM
[15] = molecular target: Beta-2 adrenergic receptor (Homo sapiens) (UniProt P07550); conditions: Compound concentration 10.0 uM
[16] = molecular target: Melatonin receptor type 1A (Homo sapiens) (UniProt P48039); test: Inhibition of Melatonin MT1 at 10 µM in the Eurofins-Panlabs radioligand binding assay (Eurofins_assay_251600); parameters: ligand concentration 0.05 nM; conditions: Compound concentration 10.0 uM
[17] = molecular target: T2, 5-hydroxytryptamine receptor 1A (Homo sapiens) (UniProt P08908); conditions: Compound concentration 10.0 uM
T2 sequence (whole entry): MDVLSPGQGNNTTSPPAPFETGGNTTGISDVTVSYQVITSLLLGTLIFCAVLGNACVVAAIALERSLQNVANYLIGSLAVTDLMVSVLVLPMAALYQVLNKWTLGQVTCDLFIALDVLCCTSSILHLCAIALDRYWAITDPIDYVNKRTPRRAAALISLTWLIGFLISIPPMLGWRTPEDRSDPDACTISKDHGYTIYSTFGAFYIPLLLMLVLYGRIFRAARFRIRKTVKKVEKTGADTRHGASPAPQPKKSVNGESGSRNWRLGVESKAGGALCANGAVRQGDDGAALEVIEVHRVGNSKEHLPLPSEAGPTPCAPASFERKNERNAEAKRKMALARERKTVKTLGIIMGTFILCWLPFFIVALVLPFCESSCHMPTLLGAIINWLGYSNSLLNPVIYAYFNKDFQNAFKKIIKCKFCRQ

[18] = molecular target: T3, Muscarinic acetylcholine receptor M2 (Homo sapiens) (UniProt P08172); conditions: Compound concentration 10.0 uM
T3 sequence (whole entry): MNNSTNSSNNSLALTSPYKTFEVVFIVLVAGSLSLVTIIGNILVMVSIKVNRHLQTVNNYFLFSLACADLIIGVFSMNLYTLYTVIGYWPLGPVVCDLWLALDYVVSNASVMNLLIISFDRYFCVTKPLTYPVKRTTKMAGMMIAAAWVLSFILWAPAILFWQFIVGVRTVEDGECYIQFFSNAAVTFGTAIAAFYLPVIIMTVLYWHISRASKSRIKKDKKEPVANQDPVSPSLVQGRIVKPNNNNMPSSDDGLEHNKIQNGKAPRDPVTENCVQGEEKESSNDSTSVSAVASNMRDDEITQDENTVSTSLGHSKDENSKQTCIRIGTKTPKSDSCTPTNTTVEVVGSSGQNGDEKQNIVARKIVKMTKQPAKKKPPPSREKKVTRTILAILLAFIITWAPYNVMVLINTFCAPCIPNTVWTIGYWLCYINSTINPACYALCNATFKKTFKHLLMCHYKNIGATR

[19] = molecular target: Substance-P receptor (Homo sapiens) (UniProt P25103); test: Inhibition of Tachykinin NK1 at 10 µM in the Eurofins-Panlabs radioligand binding assay (Eurofins_assay_255520); parameters: ligand concentration 0.8 nM; conditions: Compound concentration 10.0 uM
[20] = molecular target: 5-hydroxytryptamine receptor 2C (Homo sapiens, UniProt P28335); test: GPCRScan assay: inhibition of 5-HT2C; parameters: radioligand conc. used [nm] 1.0 – 2.5, parental cells HEK T
hERG (KCNH2) = hERG (KCNH2) (Homo sapiens, UniProt Q12809); test: Inhibition of Potassium Channel hERG at 10 µM in the Eurofins-Panlabs radioligand binding assay (Eurofins_assay_265900); parameters: ligand concentration 1.5 nM, non-specific ligand with concentration Astemizole, incubation time 60 min, incubation temperature 25 °C; conditions: HEK-293 cells that express recombinant human hERG, probe [3H] Astemizole, 1.5 nM, compound concentration 10 uM

Chain of Histamine H3 receptor (Homo sapiens) (Q9Y5N1 whole entry): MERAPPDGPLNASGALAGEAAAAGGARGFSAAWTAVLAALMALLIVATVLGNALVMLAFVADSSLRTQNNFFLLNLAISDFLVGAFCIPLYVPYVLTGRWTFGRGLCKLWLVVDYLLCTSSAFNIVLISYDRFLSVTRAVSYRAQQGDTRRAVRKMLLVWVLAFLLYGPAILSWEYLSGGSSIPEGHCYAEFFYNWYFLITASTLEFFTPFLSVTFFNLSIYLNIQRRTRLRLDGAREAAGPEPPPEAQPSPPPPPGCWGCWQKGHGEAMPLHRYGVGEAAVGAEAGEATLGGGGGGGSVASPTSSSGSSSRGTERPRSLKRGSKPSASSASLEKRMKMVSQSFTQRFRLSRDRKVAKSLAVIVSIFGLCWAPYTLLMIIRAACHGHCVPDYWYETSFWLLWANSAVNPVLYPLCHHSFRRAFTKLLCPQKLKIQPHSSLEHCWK
Chain of 5-hydroxytryptamine receptor 2C (P28335 whole entry): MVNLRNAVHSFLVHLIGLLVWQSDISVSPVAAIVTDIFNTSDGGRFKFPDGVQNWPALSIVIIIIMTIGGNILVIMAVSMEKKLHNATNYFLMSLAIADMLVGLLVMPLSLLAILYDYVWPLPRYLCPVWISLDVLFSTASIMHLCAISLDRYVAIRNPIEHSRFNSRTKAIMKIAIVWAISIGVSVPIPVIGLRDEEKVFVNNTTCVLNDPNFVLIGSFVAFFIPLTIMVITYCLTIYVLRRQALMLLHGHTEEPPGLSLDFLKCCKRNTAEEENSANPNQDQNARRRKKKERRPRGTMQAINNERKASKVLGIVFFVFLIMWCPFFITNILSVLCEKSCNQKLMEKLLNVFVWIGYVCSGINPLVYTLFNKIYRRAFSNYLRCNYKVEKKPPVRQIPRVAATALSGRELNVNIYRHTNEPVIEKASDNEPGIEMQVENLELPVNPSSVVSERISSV
Chain of D(1A) dopamine receptor (Homo sapiens) (P21728 whole entry): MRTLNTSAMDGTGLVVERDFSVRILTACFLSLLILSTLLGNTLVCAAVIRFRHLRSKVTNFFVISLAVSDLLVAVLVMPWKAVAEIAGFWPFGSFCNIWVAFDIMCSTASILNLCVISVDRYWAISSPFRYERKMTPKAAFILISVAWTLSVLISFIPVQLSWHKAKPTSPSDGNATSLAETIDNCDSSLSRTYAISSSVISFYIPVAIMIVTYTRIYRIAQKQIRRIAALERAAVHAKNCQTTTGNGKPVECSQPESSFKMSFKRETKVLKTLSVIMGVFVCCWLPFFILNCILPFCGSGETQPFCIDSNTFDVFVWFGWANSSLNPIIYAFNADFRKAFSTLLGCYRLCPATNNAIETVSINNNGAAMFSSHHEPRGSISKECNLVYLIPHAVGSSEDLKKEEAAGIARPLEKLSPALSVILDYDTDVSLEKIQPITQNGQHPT
Chain of L-type calcium channel, dihydropyridine site (Cav1.2 alpha-1C) (Q13936 whole entry): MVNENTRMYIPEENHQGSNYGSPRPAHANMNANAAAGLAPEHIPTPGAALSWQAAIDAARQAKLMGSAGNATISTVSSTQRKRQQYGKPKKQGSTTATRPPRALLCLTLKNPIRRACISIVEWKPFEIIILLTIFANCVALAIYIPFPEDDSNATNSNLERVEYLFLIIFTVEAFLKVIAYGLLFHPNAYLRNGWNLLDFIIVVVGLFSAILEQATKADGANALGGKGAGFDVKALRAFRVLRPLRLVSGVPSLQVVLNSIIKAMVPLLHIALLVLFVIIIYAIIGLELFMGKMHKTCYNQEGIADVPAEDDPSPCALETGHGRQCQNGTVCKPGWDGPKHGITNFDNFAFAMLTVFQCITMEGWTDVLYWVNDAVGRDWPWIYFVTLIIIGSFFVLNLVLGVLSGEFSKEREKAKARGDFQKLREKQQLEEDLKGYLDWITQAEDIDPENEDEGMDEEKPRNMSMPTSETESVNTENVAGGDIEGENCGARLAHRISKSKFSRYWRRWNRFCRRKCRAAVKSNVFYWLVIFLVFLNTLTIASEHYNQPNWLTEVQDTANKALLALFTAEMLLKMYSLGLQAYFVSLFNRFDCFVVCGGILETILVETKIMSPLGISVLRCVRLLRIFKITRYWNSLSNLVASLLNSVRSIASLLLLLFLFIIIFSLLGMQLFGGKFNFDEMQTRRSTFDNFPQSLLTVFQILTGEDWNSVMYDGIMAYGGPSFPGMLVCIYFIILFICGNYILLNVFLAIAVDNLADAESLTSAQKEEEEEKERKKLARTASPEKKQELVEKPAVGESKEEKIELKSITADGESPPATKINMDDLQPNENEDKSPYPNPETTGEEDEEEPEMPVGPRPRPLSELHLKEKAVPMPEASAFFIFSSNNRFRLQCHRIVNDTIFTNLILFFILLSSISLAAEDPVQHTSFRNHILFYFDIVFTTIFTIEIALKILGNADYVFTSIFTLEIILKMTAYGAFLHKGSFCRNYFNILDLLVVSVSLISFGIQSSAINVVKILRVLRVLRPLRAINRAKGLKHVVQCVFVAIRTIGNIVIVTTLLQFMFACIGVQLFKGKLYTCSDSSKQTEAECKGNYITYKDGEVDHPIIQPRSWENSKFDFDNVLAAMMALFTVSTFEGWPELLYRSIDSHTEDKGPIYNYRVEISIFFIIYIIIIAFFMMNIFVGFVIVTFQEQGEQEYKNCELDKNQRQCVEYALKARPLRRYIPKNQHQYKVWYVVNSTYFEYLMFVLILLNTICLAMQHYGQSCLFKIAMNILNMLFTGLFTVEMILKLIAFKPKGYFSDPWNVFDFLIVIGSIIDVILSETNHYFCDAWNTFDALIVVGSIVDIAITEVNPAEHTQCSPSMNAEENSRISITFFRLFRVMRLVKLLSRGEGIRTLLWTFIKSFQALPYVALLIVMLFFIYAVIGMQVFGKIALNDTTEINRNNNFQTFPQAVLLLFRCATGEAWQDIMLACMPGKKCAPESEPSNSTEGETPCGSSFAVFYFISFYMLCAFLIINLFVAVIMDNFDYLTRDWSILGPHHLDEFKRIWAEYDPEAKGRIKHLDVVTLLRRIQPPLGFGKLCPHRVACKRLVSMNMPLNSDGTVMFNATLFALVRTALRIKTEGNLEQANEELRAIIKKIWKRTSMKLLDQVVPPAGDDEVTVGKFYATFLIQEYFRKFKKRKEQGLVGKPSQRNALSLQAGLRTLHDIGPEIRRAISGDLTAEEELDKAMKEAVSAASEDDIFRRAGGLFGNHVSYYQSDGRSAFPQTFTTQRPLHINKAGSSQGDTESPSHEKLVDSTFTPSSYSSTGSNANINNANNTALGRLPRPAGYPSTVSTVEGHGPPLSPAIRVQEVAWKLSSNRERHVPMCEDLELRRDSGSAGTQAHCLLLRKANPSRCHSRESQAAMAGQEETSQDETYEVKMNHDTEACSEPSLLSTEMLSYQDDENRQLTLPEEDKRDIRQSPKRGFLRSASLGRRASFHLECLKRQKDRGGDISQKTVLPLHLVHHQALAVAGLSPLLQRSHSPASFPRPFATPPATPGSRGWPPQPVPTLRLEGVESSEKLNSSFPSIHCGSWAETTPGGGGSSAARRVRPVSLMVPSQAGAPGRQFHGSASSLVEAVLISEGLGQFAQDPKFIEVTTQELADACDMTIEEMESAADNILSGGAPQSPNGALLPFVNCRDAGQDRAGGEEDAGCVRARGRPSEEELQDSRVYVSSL
Chain of Sigma non-opioid intracellular receptor 1 (Homo sapiens) (Q99720 whole entry): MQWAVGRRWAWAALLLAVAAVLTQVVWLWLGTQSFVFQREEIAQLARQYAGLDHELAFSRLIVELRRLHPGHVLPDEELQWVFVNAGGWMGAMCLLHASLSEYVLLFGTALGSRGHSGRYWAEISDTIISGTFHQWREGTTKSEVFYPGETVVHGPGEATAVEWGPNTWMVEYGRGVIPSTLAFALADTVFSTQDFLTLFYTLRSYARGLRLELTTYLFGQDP
Chain of Substance-P receptor (Homo sapiens) (P25103 whole entry): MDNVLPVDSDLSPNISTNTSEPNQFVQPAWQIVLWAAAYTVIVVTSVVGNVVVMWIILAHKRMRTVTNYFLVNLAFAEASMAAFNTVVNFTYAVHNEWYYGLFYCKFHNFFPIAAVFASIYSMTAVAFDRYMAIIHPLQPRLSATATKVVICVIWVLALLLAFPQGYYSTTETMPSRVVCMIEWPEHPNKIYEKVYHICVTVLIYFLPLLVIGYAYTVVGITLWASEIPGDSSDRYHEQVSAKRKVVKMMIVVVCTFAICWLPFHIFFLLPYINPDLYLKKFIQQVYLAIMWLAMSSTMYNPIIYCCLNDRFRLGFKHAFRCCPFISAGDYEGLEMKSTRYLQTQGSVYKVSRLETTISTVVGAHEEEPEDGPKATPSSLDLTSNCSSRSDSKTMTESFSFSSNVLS
Chain of Melatonin receptor type 1A (Homo sapiens) (P48039 whole entry): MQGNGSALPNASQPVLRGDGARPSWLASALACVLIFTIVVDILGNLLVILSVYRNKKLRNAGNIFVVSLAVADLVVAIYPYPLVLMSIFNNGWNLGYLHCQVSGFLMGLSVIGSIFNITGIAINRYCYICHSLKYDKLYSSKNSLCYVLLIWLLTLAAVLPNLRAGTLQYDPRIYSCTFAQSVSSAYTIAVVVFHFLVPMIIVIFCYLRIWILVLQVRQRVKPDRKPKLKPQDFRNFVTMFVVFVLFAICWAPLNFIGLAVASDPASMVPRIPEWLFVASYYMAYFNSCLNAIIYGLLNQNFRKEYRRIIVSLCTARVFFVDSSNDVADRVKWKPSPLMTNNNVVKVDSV
Chain of B1 bradykinin receptor (Homo sapiens) (P46663 whole entry): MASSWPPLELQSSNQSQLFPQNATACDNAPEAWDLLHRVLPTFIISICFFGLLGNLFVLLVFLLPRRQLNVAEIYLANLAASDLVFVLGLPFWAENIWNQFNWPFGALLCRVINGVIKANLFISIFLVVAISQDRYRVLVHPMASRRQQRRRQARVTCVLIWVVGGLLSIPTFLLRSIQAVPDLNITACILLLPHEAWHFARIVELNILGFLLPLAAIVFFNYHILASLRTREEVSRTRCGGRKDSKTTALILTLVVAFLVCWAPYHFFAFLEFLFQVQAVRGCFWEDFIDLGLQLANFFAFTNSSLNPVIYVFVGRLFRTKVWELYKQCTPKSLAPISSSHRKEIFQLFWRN

NS(=O)(=O)c1cc(NC(=O)C2(c3ccccc3Cl)CC2)ccc1Oc1cccc(Cl)c1 [BAY-207]
inhibition [1]: 3.87%

NS(=O)(=O)c1cc(NC(=O)Cc2ccccc2)ccc1Oc1cccc(Cl)c1 [BAY-1797]
inhibition at 90 min, 10 µM [2]: 21% (not active) | inhibition (Mus musculus [3]): 24% | inhibition [4]: 11% | inhibition [5]: -9% | inhibition [6]: 19% | inhibition at 60 min, 10 µM [7]: 57% | inhibition [8]: 15% | inhibition [9]: 0% | inhibition [10]: 4% | inhibition (Mus musculus [11]): 4% | inhibition [12]: 11% | inhibition [13]: 4% | inhibition [14]: 44% | inhibition [15]: 18.9% | inhibition [16]: 13% | inhibition [17]: 7% | inhibition [18]: 4% | inhibition [19]: 4% | Ki ([20]; read-out: Ki): 6.52 µM | Ki ([20]; read-out: pKi (converted)): 5.89 µM | inhibition at 60 min, 10 µM (hERG (KCNH2)): 8% (not active)
